This is an account of results in patent US20240199584A1, “KRAS INHIBITORS” (Bristol-Myers Squibb Company, priority 2022, published 2024).

Test [1] deals with T1, KRAS G12C (Homo sapiens, UniProt P01116, G12C).
T1 construct: expressed in transfected cells
Briefly: Cellular KRAS:RAF Disruption Assay (NanoBRET), KRAS G12C. Format: cell-based. As to conditions: HEK293 T cells co-expressing RAF1 and KRAS G12C, 24 hours; read-out: RAS::RAF binding via NanoBRET IC50, KRAS G12C. The protocol:
(§1) Cellular KRAS:RAF Disruption Assay
(§2) Stable cell lines (HEK293 T) were generated to co-express RAF1 and mutant or wild type KRAS, as indicated, using the BiBRET vector (Promega). Engineered cell lines were suspended in media (OptiMEM, […]), plated in 384-well plates (8000 cells/well), and allowed to rest for 1.5 hours. Cells were treated with compounds for 24 hours, and NanoBRET NanoGlo substrate (Promega) was added per the manufacturer's instructions.
On the technique in general: In BRET a luciferase serves as donor, and the signal depends on an acceptor being close.

For test [2], the target named is T2, KRAS WT (Homo sapiens, UniProt P01116).
T2 construct: expressed in transfected cells
T2 sequence (P01116 1-188 isoform P01116-2): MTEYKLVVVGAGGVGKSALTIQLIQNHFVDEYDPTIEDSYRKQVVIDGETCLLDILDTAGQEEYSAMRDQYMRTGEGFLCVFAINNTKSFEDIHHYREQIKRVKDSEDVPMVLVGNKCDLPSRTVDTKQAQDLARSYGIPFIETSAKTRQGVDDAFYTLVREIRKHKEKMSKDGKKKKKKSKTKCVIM
The test is described as follows: Cellular KRAS:RAF Disruption Assay (NanoBRET), KRAS WT. The format is cell-based. As to conditions: HEK293 T cells co-expressing RAF1 and wild type KRAS, 24 hours; read-out: RAS::RAF binding via NanoBRET IC50, KRAS WT. The protocol:
as §1, §2

For test [3], the target named is T3, KRAS G12A (Homo sapiens, UniProt P01116, G12A).
T3 construct: expressed in transfected cells
T3 sequence (P01116 1-188 isoform P01116-2 G12A): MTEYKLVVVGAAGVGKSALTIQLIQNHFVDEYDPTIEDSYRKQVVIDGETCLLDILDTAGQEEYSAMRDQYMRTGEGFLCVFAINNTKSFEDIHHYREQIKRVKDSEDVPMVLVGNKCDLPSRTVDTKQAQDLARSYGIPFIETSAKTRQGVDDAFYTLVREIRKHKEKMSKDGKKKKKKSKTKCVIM
The test is described as follows: Cellular KRAS:RAF Disruption Assay (NanoBRET), KRAS G12A. The format is cell-based. To be noted: HEK293 T cells co-expressing RAF1 and KRAS G12A, 24 hours; read-out: RAS::RAF binding via NanoBRET IC50, KRAS G12A. The method, then: as §1, §2

Test [4] deals with T4, KRAS G12V (Homo sapiens, UniProt P01116, G12V).
T4 construct: expressed in transfected cells
T4 sequence (P01116 1-188 isoform P01116-2 G12V): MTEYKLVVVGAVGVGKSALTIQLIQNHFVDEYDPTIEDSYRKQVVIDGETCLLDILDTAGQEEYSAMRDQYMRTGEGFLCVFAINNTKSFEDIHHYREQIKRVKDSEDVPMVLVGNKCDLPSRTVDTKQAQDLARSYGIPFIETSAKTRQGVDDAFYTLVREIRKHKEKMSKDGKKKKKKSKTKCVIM
The test is described as follows: Cellular KRAS:RAF Disruption Assay (NanoBRET), KRAS G12V. Format: cell-based. To be noted: HEK293 T cells co-expressing RAF1 and KRAS G12V, 24 hours; read-out: RAS::RAF binding via NanoBRET IC50, KRAS G12V. The method, then:
as §1, §2

For test [5], the target named is T5, KRAS G12R (Homo sapiens, UniProt P01116, G12R).
T5 construct: expressed in transfected cells
T5 sequence (P01116 1-188 isoform P01116-2 G12R): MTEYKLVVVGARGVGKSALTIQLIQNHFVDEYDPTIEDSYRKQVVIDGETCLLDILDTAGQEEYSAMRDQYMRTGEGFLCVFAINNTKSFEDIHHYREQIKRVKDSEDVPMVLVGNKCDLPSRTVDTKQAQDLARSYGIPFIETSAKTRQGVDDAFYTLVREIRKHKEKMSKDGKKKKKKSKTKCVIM
The test is described as follows: Cellular KRAS:RAF Disruption Assay (NanoBRET), KRAS G12R. The format is cell-based. To be noted: HEK293 T cells co-expressing RAF1 and KRAS G12R, 24 hours; read-out: RAS::RAF binding via NanoBRET IC50, KRAS G12R. The protocol: as §1, §2

Test [6] has as its target T6, KRAS A146T (Homo sapiens, UniProt P01116, A146T).
T6 construct: expressed in transfected cells
The test is described as follows: Cellular KRAS:RAF Disruption Assay (NanoBRET), KRAS A146T. As to conditions: HEK293 T cells co-expressing RAF1 and KRAS A146T, 24 hours; read-out: RAS::RAF binding via NanoBRET IC50, KRAS A146T. Format: cell-based. The method, then:
as §1, §2

Test [7] deals with T7, KRAS Q61R (Homo sapiens, UniProt P01116, Q61R).
T7 construct: expressed in transfected cells
T7 sequence (P01116 1-188 isoform P01116-2 Q61R): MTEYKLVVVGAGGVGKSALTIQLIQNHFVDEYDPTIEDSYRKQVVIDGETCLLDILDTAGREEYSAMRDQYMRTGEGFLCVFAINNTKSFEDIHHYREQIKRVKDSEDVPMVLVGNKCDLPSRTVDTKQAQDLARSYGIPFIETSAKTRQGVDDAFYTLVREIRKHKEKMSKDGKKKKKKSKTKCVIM
Briefly: Cellular KRAS:RAF Disruption Assay (NanoBRET), KRAS Q61R. The format is cell-based. As to conditions: HEK293 T cells co-expressing RAF1 and KRAS Q61R, 24 hours; read-out: RAS::RAF binding via NanoBRET IC50, KRAS Q61R. The protocol:
as §1, §2

For test [8], the target named is T8, KRAS Q61H (Homo sapiens, UniProt P01116, Q61H).
T8 construct: expressed in transfected cells
T8 sequence (P01116 1-188 isoform P01116-2 Q61H): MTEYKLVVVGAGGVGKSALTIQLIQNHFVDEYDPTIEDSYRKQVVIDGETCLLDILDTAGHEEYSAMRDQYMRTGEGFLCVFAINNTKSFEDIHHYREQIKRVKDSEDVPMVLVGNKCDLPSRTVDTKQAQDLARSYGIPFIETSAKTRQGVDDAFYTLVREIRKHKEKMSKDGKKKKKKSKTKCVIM
Briefly: Cellular KRAS:RAF Disruption Assay (NanoBRET), KRAS Q61H. Format: cell-based. As to conditions: HEK293 T cells co-expressing RAF1 and KRAS Q61H, 24 hours; read-out: RAS::RAF binding via NanoBRET IC50, KRAS Q61H. The method, then:
as §1, §2

In test [9] the target is T9, KRAS G12S (Homo sapiens, UniProt P01116, G12S).
T9 construct: expressed in transfected cells
T9 sequence (P01116 1-188 isoform P01116-2 G12S): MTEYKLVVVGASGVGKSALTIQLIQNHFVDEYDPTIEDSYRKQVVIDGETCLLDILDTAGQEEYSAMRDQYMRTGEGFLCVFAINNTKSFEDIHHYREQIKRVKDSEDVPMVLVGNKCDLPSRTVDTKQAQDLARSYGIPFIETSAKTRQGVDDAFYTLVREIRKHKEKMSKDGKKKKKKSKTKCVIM
Briefly: Cellular KRAS:RAF Disruption Assay (NanoBRET), KRAS G12S. To be noted: HEK293 T cells co-expressing RAF1 and KRAS G12S, 24 hours; read-out: RAS::RAF binding via NanoBRET IC50, KRAS G12S. Format: cell-based. The method, then: as §1, §2

Test [10] deals with T10, KRAS G13D (Homo sapiens, UniProt P01116, G13D).
T10 construct: expressed in transfected cells
T10 sequence (P01116 1-188 isoform P01116-2 G13D): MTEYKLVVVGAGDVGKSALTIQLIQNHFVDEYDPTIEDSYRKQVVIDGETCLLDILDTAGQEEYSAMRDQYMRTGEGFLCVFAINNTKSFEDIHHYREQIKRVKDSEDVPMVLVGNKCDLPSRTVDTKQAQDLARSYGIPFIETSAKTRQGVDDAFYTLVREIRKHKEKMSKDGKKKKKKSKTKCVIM
Briefly: Cellular KRAS:RAF Disruption Assay (NanoBRET), KRAS G13D. Format: cell-based. As to conditions: HEK293 T cells co-expressing RAF1 and KRAS G13D, 24 hours; read-out: RAS::RAF binding via NanoBRET IC50, KRAS G13D. The method, then: as §1, §2

The target in test [11] is T11, KRAS G12D (Homo sapiens, UniProt P01116, G12D). The test is described as follows: biochemical.
T11 sequence (P01116 1-188 isoform P01116-2 G12D): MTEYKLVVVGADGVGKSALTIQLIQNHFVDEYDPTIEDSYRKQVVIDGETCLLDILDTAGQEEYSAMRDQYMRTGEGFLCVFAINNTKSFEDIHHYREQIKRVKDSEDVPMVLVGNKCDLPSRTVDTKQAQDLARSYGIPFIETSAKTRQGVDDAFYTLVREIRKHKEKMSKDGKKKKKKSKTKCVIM
Method: BIODIPY-labeled GDP (BIODIPY: dipyrrometheneboron difluoride) (400 nM) and recombinant SOS (son of sevenless protein) (10 nM) were added, and the reaction was incubated for 30 minutes. HTRF signal was measured (PerkinElmer Envision), the signal ratio (λem 520/λem 495) was calculated, and IC50 values were calculated from the dose-response curve.
Test [12] deals with T11, KRAS G12D. The test is described as follows: biochemical. This is another data set of the same source.
Method: Recombinant GST-RAF1 RBD (Ras binding domain) (9 nM) was added, followed by the addition of SA-Tb (0.25 nM), and the reaction mixture was incubated for 3 hours. HTRF (Homogeneous Time-Resolved Fluorescence) signal was measured (PerkinElmer Envision), the signal ratio (λem 520/λem 495) was calculated, and IC50 values were calculated from the dose-response curve.

Where two headings read alike, the source gives them in different places.

T1 sequence (P01116 1-188 isoform P01116-2 G12C): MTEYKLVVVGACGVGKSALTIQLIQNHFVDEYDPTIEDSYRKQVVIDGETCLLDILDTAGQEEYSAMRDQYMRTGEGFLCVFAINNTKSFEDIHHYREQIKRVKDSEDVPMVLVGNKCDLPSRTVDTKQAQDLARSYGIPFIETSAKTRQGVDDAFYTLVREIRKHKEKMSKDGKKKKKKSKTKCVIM
T6 sequence (P01116 1-188 isoform P01116-2 A146T): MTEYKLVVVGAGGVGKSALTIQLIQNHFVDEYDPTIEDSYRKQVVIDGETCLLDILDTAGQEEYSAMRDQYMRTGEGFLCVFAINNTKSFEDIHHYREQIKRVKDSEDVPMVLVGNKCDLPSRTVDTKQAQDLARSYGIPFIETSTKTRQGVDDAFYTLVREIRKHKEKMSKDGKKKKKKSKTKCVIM

As to `C#Cc1c(F)ccc2cc(O)cc(-c3ccc4c(N5C[C@@H]6C[C@H]5C(=O)N6)nc(OC[C@]56CCC[C@H]5N(C)CCC6)nc4c3F)c12` [Example 5-1, (1S,4S)-5-(2-{[(4aS,7aR)-1-methyl-octahydro-1H-cyclopenta[b]pyridin-4a-yl]methoxy}-7-(8-ethynyl-7-fluoro-3-hydroxynaphthalen-1-yl)-8-fluoroquinazolin-4-yl)-2,5-diazabicyclo[2.2.1]heptan-3-one], the concentration for half-maximal inhibition (IC50) in [1] was 826 nM; in [2] it was 238 nM; in test [3], 881 nM; in [4], 2510 nM.
Consider `C#Cc1c(F)ccc2cc(O)cc(-c3ncc4c(N5CCOCC5)nc(OC[C@@]56CCCN5C[C@H](F)C6)nc4c3F)c12` [Example 1-1, 4-(2-{[(2R,7aS)-2-fluoro-hexahydro-1H-pyrrolizin-7a-yl]methoxy}-8-fluoro-4-(morpholin-4-yl)pyrido[4,3-d]pyrimidin-7-yl)-5-ethynyl-6-fluoronaphthalen-2-ol], for which the concentration for half-maximal inhibition (IC50) in test [5] was 5300 nM; in test [1] it was 25 nM; in [6] it was 76 nM; in test [2], 6 nM; in test [7], above 10000 nM; in test [8] it was 99 nM. Besides, the IC50 amounted to 29 nM in test [9], 45 nM in test [10], 16 nM in test [3] and 199 nM in [4].
For the molecule `C#Cc1c(F)ccc2cc(O)cc(-c3ncc4c(N5CC6COC(C6)C5)nc(OC[C@@]56CCCN5C[C@H](F)C6)nc4c3F)c12` (stereo partly drawn) [Example 1-90, 4-(2-{[(2R,7aS)-2-fluoro-hexahydro-1H-pyrrolizin-7a-yl]methoxy}-8-fluoro-4-{6-oxa-3-azabicyclo [3.2.1]octan-3-yl}pyrido[4,3-d]pyrimidin-7-yl)-5-ethynyl-6-fluoronaphthalen-2-ol], the half-inhibitory concentration (IC50) in [1] was 41.6 nM; in test [2], 11.9 nM; in test [3], 19.5 nM; in [4], 197 nM.
Take `C#Cc1c(F)ccc2cc(O)cc(-c3ccc4c(N5CC6CCC(C5)N6C(=O)C(F)(F)F)nc(OC[C@@]56CCCN5C[C@H](F)C6)nc4c3F)c12` [Example 7-3, 1-[3-(2-{[(2R,7aS)-2-fluoro-hexahydro-1H-pyrrolizin-7a-yl]methoxy}-7-(8-ethynyl-7-fluoro-3-hydroxynaphthalen-1-yl)-8-fluoroquinazolin-4-yl)-3,8-diazabicyclo[3.2.1]octan-8-yl]-2,2,2-trifluoroethan-1-one]: the 50% inhibitory concentration (IC50) is 7510 nM in test [5]; 367 nM in test [1]; 315 nM in test [6]; 40 nM in test [2]; above 10000 nM in [7]; 474 nM in test [8]. The IC50 was determined as 313 nM in [9], 199 nM in test [10], 144 nM in [3] and 680 nM in [4].
Take `C#Cc1c(F)ccc2cc(O)cc(-c3ncc4c(N5CCOCC(F)(F)C5)nc(OC[C@]56CCC[C@H]5N(C)CCC6)nc4c3F)c12` [Example 1-107, 4-(2-{[(4aS,7aR)-1-methyl-octahydro-1H-cyclopenta[b]pyridin-4a-yl]methoxy}-4-(6,6-difluoro-1,4-oxazepan-4-yl)-8-fluoropyrido[4,3-d]pyrimidin-7-yl)-5-ethynyl-6-fluoronaphthalen-2-ol]: the IC50 in [1] was 9.8 nM; in test [2], 9.7 nM; in test [3] it was 5.3 nM; in test [4], 133 nM.
Turning to `C#Cc1c(F)ccc2cc(O)cc(-c3ncc4c(N5C[C@H]6C[C@@H]5CO6)nc(OC[C@@]56CCCN5C[C@H](F)C6)nc4c3F)c12` [Example 1-37, 4-(2-{[(2R,7aS)-2-fluoro-hexahydro-1H-pyrrolizin-7a-yl]methoxy}-8-fluoro-4-[(1R,4R)-2-oxa-5-azabicyclo[2.2.1]heptan-5-yl]pyrido[4,3-d]pyrimidin-7-yl)-5-ethynyl-6-fluoronaphthalen-2-ol], the figures for the IC50 in test [1], in [3] and in [4] were 16.6 nM, 10.5 nM and 54.5 nM, respectively.
As for `C#Cc1c(F)ccc2cc(O)cc(-c3ncc4c(N5CCOCC(C)(O)C5)nc(OC[C@]56CCC[C@H]5N(C)CCC6)nc4c3F)c12` (stereo partly drawn) [Example 1-108, 4-(2-{[(4aS,7aR)-1-methyl-octahydro-1H-cyclopenta[b]pyridin-4a-yl]methoxy}-7-(8-ethynyl-7-fluoro-3-hydroxynaphthalen-1-yl)-8-fluoropyrido[4,3-d]pyrimidin-4-yl)-6-methyl-1,4-oxazepan-6-ol], the half-maximal inhibitory concentration (IC50) was 18.8 nM in [1], 17.2 nM in test [2], 13.2 nM in [3] and 140 nM in [4].
On the same counts, the results for `C#Cc1c(F)ccc2cc(O)cc(-c3ncc4c(N5CCCC(C)(O)C5)nc(OC[C@]56CCC[C@H]5N(C)CCC6)nc4c3F)c12` (single isomer, unassigned) [Example 1-89] are 9.3 nM, 8.5 nM, 4.8 nM and 20.1 nM.
For `C#Cc1c(F)ccc2cc(O)cc(-c3ncc4c(N5CCOC6CC65)nc(OC[C@]56CCC[C@H]5N(C)CCC6)nc4c3F)c12` (single isomer, unassigned) [Example 1-99] the same measures were 11 nM, 3 nM, 12 nM and 126 nM.
For the molecule `C#Cc1c(F)ccc2cc(O)cc(-c3ccc4c(N5CCCC(C)(O)C5)nc(OC[C@]56CCC[C@H]5N(C)CCC6)nc4c3F)c12` (stereo partly drawn) [Example 2-72, 1-(2-{[(4aS,7aR)-1-methyl-octahydro-1H-cyclopenta[b]pyridin-4a-yl]methoxy}-7-(8-ethynyl-7-fluoro-3-hydroxynaphthalen-1-yl)-8-fluoroquinazolin-4-yl)-3-methylpiperidin-3-ol], the IC50 in test [1] turned out to be 12.8 nM; in test [2], 3.6 nM; in test [3] it was 9 nM; in test [4], 40.5 nM.
On the same counts, the results for `C#Cc1c(F)ccc2cc(O)cc(-c3ncc4c(N5CCOC6CC65)nc(OC[C@@]56CCCN5C[C@H](F)C6)nc4c3F)c12` (stereo partly drawn) [Example 1-100, 4-(2-{[(2R,7aS)-2-fluoro-hexahydro-1H-pyrrolizin-7a-yl]methoxy}-8-fluoro-4-{2-oxa-5-azabicyclo[4.1.0]heptan-5-yl}pyrido[4,3-d]pyrimidin-7-yl)-5-ethynyl-6-fluoronaphthalen-2-ol] are 12.9 nM, 12.3 nM, 4.6 nM and 118 nM.
Turning to `C#Cc1c(F)ccc2cc(O)cc(-c3ccc4c(N5CCC(S(=O)(=O)N(C)C)CC5)nc(OC[C@@]56CCCN5C[C@H](F)C6)nc4c3F)c12` [Example 2-19, 1-(2-{[(2R,7aS)-2-fluoro-hexahydro-1H-pyrrolizin-7a-yl]methoxy}-7-(8-ethynyl-7-fluoro-3-hydroxynaphthalen-1-yl)-8-fluoroquinazolin-4-yl)-N,N-dimethylpiperidine-4-sulfonamide], the 50% inhibitory concentration (IC50) was 2390 nM in [11] and above 100000 nM in test [12].

The IC50 is the concentration needed to halve the response being measured.
